# Measured values reported in PubChem BioAssay AID720589 (Broad Institute, 2013).
# Where “and” joins values, the source holds several entries; their conditions need not be identical. Identical values can stand only once.
# System: HepG2 viability, ATP luminescence (CellTiter-Glo), 72 h
# Assay: ATP-based viability loss in HepG2 cells – cell-based, CellTiter-Glo luminescence, cherry-pick, set 3, cytotoxicity control, dose response (AID 720589)
row,Compound,AC35
1,COC(=O)C[C@@H]1CC[C@@H]2[C@@H](COc3ccc(NC(=O)Nc4ccc(C#N)cc4)cc3C(=O)N2C)O1,14.4 µM
2,C[C@H]1CN([C@@H](C)CO)S(=O)(=O)c2ccc(C#CC(C)(C)O)cc2O[C@@H]1CN(C)Cc1ccc(-c2ccccc2)cc1,0.689 µM
3,NC1=CC(=O)C(=O)c2cccnc21,13.7 µM
4,Cc1cc(C)cc(N2C(=O)NC(=O)/C(=C\C=C\c3ccco3)C2=O)c1,7.27 µM
5,CCc1nc(N)nc(N)c1-c1ccc(Cl)c(N=[N+]=[N-])c1,5 µM
6,O=C(N/N=C/c1cnc(N2CCCCC2)s1)c1ccc(C(F)(F)F)cc1,14.1 µM
7,C[C@@H]1O[C@@H](O[C@@H]2C=C3CCC4C(CC[C@]5(C)[C@@H](c6ccc(=O)oc6)CC[C@]45O)[C@@]3(C)CC2)[C@H](O)[C@H](O)[C@H]1O (stereo partly drawn),0.068 µM
8,C[C@@H]1CN([C@@H](C)CO)C(=O)c2cc(NS(=O)(=O)c3ccccc3)ccc2O[C@@H]1CN(C)Cc1ccc(C(=O)Nc2ccccc2N)cc1,7.52 µM
9,CCCCC[C@H](C)N1C[C@H](COCc2ccccc2)Oc2cc(N3CC[C@@H](N(C)C)C3)ccc2S1(=O)=O,6.56 µM
10,C[C@H](O)C#Cc1ccc2c(c1)O[C@@H](CN(C)Cc1ccc(-c3ccccc3)cc1)[C@H](C)CN([C@@H](C)CO)S2(=O)=O,3.54 µM and 6.95 µM
11,CCCCCCCCCCCCCCCCn1cc[n+](C)c1,4.54 µM
12,CCOc1cc(/C=N/Nc2cc(C)nc(-n3nc(C)cc3C)n2)ccc1O,1.14 µM
13,C[C@@H]1CCCCO[C@H](CN(C)Cc2ccc(C(F)(F)F)cc2)[C@H](C)CN([C@H](C)CO)C(=O)c2cc(NC(=O)CCCN(C)C)ccc2O1,9.15 µM
14,OCC1OC(n2ccc3c2ncn2ncnc32)C(O)C1O (stereo not drawn),0.339 µM
15,C[C@H]1CN([C@@H](C)CO)C(=O)c2cc(NC(=O)C3CCCCC3)ccc2O[C@H]1CN(C)Cc1ccc(C(=O)Nc2ccccc2N)cc1,1.47 µM
16,C[C@]12CCC3C(CCC4=CC(O)CC[C@@]43/C=N/O)C1(O)CCC2C1=CC(=O)OC1 (stereo partly drawn),1.57 µM
17,C[C@H](CO)N1C[C@H](C)[C@H](CN(C)Cc2ccc(C(=O)Nc3ccccc3N)cc2)Oc2ccc(N(C)C)cc2CC1=O,0.19 µM
18,Cc1c(CCOC(=O)CC23CC4CC(CC(C)(C4)C2)C3)sc[n+]1CC(=O)c1ccccc1,18.4 µM
19,Nc1nc(=S)c2ncn([C@@H]3O[C@H](CO)[C@@H](O)[C@H]3O)c2[nH]1,2.56 µM
20,COc1cccc(-c2cc(NC=O)c3ncc(-c4ccc(C(C)=O)cc4)n3c2)c1,15.5 µM
21,COc1ccc(S(=O)(=O)Nc2ccc3c(c2)C(=O)N([C@H](C)CO)C[C@@H](C)[C@@H](CN(C)CC2CCCCC2)OCCCC[C@H](C)O3)cc1,12.2 µM
22,Cc1ccc(OCCNC(=O)c2cccc(S(=O)(=O)NCc3ccccc3)c2)cc1,19.3 µM

row,Compound,AC35
1,COc1cc2c(cc1OC)C(C)N(C(=O)c1cc(Cl)nc(Cl)c1)CC2 (stereo not drawn),12.3 µM
2,CCN1/C(=C/C(C)=C/c2sc3ccccc3[n+]2CC)Sc2ccccc21,0.838 µM
3,C/C(=N\NC(=O)c1n[nH]c2c1CCC2)c1cccs1,15.6 µM
4,CN=c1scc(-c2ccccc2F)n1/N=C/c1ccc[nH]1,0.638 µM
5,O=C(Nc1ccc2c(c1)OCO2)N1C[C@@H]2N[C@H](C1)C2c1ccc(C=Cc2ccccc2)cc1 (stereo partly drawn),5.42 µM
6,CCc1nc(N)nc(N)c1-c1ccc(Cl)cc1,6.43 µM
7,COc1ccc([Si](C)(C)[C@H]2[C@H](CCO)O[C@@]3(C(=O)N(c4ccccc4)c4ccccc43)[C@@H]2C)cc1,10.5 µM
8,COc1ccc(OC)c(Cc2cnc3nc(N)nc(N)c3c2C)c1,0.0574 µM
9,C[C@H](CO)N1C[C@H](C)[C@H](CN(C)Cc2ccc(C(=O)Nc3ccccc3N)cc2)Oc2ccc(NC(=O)C3CC3)cc2CC1=O,0.74 µM
10,COc1cc(/C=N/NC(=O)c2csc3c2CCCC3)cc(OC)c1O,20 µM
11,CC12CCC(O)CC1CCC1C2CCC2(C)C(C3=CC(=O)OC3)CCC12O (stereo not drawn),1.17 µM
12,C=C1C(=O)O[C@@H]2[C@H]1[C@@H](OC(=O)/C(C)=C/C)C/C(C)=C\C(=O)/C=C(\C)[C@@H]2O,12.5 µM
13,CC1(C(=O)NCc2ccco2)Cc2c(-c3cccc(C(N)=O)c3)ccnc2O1 (stereo not drawn),14.5 µM
14,N#CC(=C1C=CC(=NO)C(Cl)=C1)c1ccccc1,2.66 µM
15,Cc1ccc(C(C)C)c(OCc2ccc(C(=O)N/N=C/c3ccc(O)cc3O)cc2)c1,4.24 µM
16,Cc1ccc(S(=O)(=O)Nc2ccc3c(c2)C(=O)N([C@@H](C)CO)C[C@@H](C)[C@H](CN(C)Cc2ccc(C(F)(F)F)cc2)OCCCC[C@H](C)O3)cc1,13.3 µM
17,CCOc1cc2[nH]c(=S)n(Cc3ccc(C(=O)NCCN(CC)CC)cc3)c(=O)c2cc1OCC,15.8 µM
18,C/C(=C\c1ccccc1)C(=O)N1CCC=CC1=O,4.88 µM
19,Cc1cccc(/C=C(\c2nc3ccccc3[nH]2)S(=O)(=O)c2ccccc2)c1,10.7 µM
20,O=C(NC1CCCC1)N1CCCCN2[C@@H](CO)[C@@H](c3ccc(/C=C/c4ccccc4)cc3)[C@@H]2C1,9.99 µM
21,C[C@@H]1CN([C@@H](C)CO)C(=O)c2cccc(NS(=O)(=O)c3ccc(F)cc3)c2O[C@@H]1CN(C)Cc1ccc(C(=O)Nc2ccccc2N)cc1,1.45 µM
22,C(=N\Nc1nc2ccccc2[nH]1)/c1ccccn1,7.93 µM

row,Compound,AC35
1,CCN1/C(=C/C=C/c2oc3ccc(-c4ccccc4)cc3[n+]2CC)Oc2ccc(-c3ccccc3)cc21,2.37 µM
2,Nc1cc2c(cc1Br)[nH]c(=O)c1ccccc12,19.2 µM
3,CNC[C@H](CC1CCCCC1)NC[C@H](CO)NCCc1cccc(C(F)(F)F)c1,7.57 µM
4,CC1(C)N=C(N)N=C(N)N1c1ccc(CCCCc2ccccc2)cc1,2.08 µM
5,COc1cc(C(=O)N2CCC(N3CCN(C)CC3)CC2)ccc1Nc1ncc2c(n1)N(C)c1ccccc1C(=O)N2C,11.4 µM
6,Cn1ccc2cc(-c3ccc4ncnc(NCc5cccs5)c4c3)ccc21,16.6 µM
7,C[C@H](CO)N1C[C@H](C)[C@@H](CN(C)Cc2ccc(Oc3ccccc3)cc2)Oc2ccc(NS(=O)(=O)c3ccc(Cl)cc3)cc2CC1=O,10.3 µM
8,C[C@@H]1CCCCO[C@H](CN(C)Cc2ccc(C(=O)Nc3ccccc3N)cc2)[C@@H](C)CN([C@@H](C)CO)C(=O)c2cc(NS(=O)(=O)c3ccc(Cl)cc3)ccc2O1,8.5 µM
9,C(=Cc1nc2ccccc2o1)c1ccc2c(c1)OCO2,19.5 µM
10,COC(=O)Cc1[nH]n(-c2nc3ccccc3s2)c(=O)c1C(C)=Nc1ccc(C)cc1,17.8 µM
11,CCN1C/C(=C/c2ccc(N3CCOCC3)cc2)C(=O)/C(=C/c2ccc(N3CCOCC3)cc2)C1,10.5 µM
12,C=C1C(=O)OC2C1CCC(C)C1(O)C=CC(=O)C21C (stereo not drawn),16.4 µM
13,O=C(NC(c1ccc(F)cc1)c1ccc2ccccc2n1)C1CCN(Cc2cccc(C(F)(F)F)c2)CC1 (stereo not drawn),20 µM
14,Cc1cc2c(C(C)C)c(O)c(O)c(C=O)c2c(O)c1-c1c(C)cc2c(C(C)C)c(O)c(O)c(C=O)c2c1O,13.7 µM
15,COC(=O)C[C@@H]1CC[C@H]2[C@H](COc3ccc(NC(=O)Nc4ccc(C#N)cc4)cc3C(=O)N2C)O1,4.2 µM
16,O=C(CCc1ccccc1)NC(c1cccs1)c1cc(Cl)c2cccnc2c1O (stereo not drawn),7.07 µM
17,C=CCOC(=O)c1sc(NC(=O)c2ccc(OC)cc2)nc1C,6.33 µM
18,Cc1cc(-c2nc3cc(F)ccc3s2)ccc1N,0.0938 µM
19,C[C@@H]1CCCCO[C@H](CN(C)Cc2ccc(C(=O)Nc3ccccc3N)cc2)[C@@H](C)CN([C@H](C)CO)C(=O)c2cc(NS(=O)(=O)c3ccc(Cl)cc3)ccc2O1,9.81 µM
20,CC[C@@H]1C[C@H]2CC[C@H](O2)[C@H](C)C(=O)O[C@@H](C)C[C@@H]2CC[C@@H](O2)[C@@H](C)C(=O)O[C@H](C)C[C@H]2CC[C@H](O2)[C@H](C)C(=O)O[C@@H](C)C[C@@H]2CC[C@@H](O2)[C@@H](C)C(=O)O1,0.506 µM
21,C[C@H]1CN([C@@H](C)CO)S(=O)(=O)c2ccc(C#Cc3ccncc3)cc2O[C@@H]1CN(C)C(=O)Nc1ccc2c(c1)OCO2,0.902 µM
22,Nc1nc(N)c2cc(Sc3ccc4ccccc4c3)ccc2n1,3.74 µM

row,Compound,AC35
1,O=C1NC(=O)N(c2ccccc2)C(=O)/C1=C\C=C\c1ccccc1,5.21 µM
2,BrC(=C\c1ccccc1)/C=N/n1cnnc1,16.6 µM
3,Cc1ccc(/C=C2\SC(=S)N(CCCC(=O)NNC(=O)c3ccccc3O)C2=O)cc1,16.9 µM
4,CN(C[C@H]1N[C@@H](CO)[C@@H]1c1ccc(C2=CCCC2)cc1)C(=O)c1ccc(F)cc1,4.57 µM
5,CCCCOc1ccc(NC(=O)C(=O)NCCCn2ccnc2)cc1,13.7 µM
6,CN1C2CCC1/C(=C/c1ccccn1)C(=O)/C2=C\c1ccccn1,1.27 µM
7,C[C@H]1CN([C@@H](C)CO)C(=O)c2cc(NS(=O)(=O)c3ccc(Cl)cc3)ccc2O[C@H]1CN(C)Cc1ccc(C(=O)Nc2ccccc2N)cc1,7.39 µM
8,C[C@]12CC[C@H]3[C@@H](CC[C@]4(O)C[C@@H](O)CC[C@]34C=O)[C@@]1(O)CC[C@@H]2C1=CC(=O)OC1,0.93 µM
9,C=C1C(=O)C=C[C@]2(C)C[C@@H]3OC(=O)[C@](C)(O)[C@H]3C[C@@H]12,11.8 µM
10,OCC1OC(n2cnc3c(NCc4ccco4)ncnc32)C(O)C1O (stereo not drawn),3.82 µM
11,Cc1ccc(S(=O)(=O)Nc2ccc3c(c2)C(=O)N([C@@H](C)CO)C[C@@H](C)[C@@H](CN(C)Cc2ccc(C(=O)Nc4ccccc4N)cc2)O3)cc1,6.33 µM
12,Cc1noc(C)c1NC(=O)Nc1ccc2c(c1)CC(=O)N([C@H](C)CO)C[C@@H](C)[C@@H](CN(C)Cc1ccc(Cl)c(Cl)c1)O2,7.54 µM
13,CN(C)c1ccc(N=Nc2nc3ccccc3n2C)cc1,12 µM
14,CCOC(=O)[C@]12Cc3ccc(C)cc3[C@H]1N(C1CCCCC1)C(=O)c1ccccc12,3.95 µM
15,Oc1[nH]c2ccc(Br)cc2c1N=NC(=S)N1CCOCC1,2.9 µM
16,C[C@@H]1CCCCO[C@H](CN(C)Cc2ccc(C(=O)Nc3ccccc3N)cc2)[C@@H](C)CN([C@H](C)CO)C(=O)c2cc(NS(=O)(=O)c3ccc(F)cc3)ccc2O1,10.4 µM
17,C[C@H]1CN([C@@H](C)CO)C(=O)Cc2cc(NC(=O)CCC(F)(F)F)ccc2O[C@H]1CN(C)Cc1ccc(C(=O)Nc2ccccc2N)cc1,2.13 µM
18,COc1ccc(/C=C/C(=O)c2cc(F)ccc2OC(=O)c2ccccc2OC)cc1OC,13.9 µM
19,Cc1ccc(S(=O)(=O)Nc2ccc3c(c2)C(=O)N([C@H](C)CO)C[C@H](C)[C@@H](CN(C)Cc2ccc(C(F)(F)F)cc2)OCCCC[C@H](C)O3)cc1,10 µM
20,C=C(C(=O)c1ccccc1)C(C(=C)C(=O)c1ccccc1)c1ccc(OC)cc1,8.69 µM
21,O=C1c2ccccc2C(=O)c2cc(N3CCCCC3)ccc21,12.5 µM
22,O=C1NC(=O)N(Cc2ccccc2)C(=O)/C1=C\C=C\c1ccco1,5.18 µM
